In PubChem BioAssay AID248 (DTP/NCI, 2004):
Values joined by “and” are separate entries in the source; they are usually repeats but may differ in a detail not shown here. Equal entries are not always repeated. Toxic doses and inconclusive results are not listed. Cut-off read from the data, not from the text of the source: active = T/C of 150% or more; inactive = T/C below 125%.

Tested on: L1210 leukemia ip in BDF1 mice, survival T/C
Assay: NCI In Vivo Anticancer Drug Screen. Data for tumor model L1210 Leukemia (intraperitoneal) in B6D2F1 (BDF1) mice
Settings: higher = longer survival
Outline: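 In this screen, tumor-bearing mice given compound are compared to those given vehicle, and their survival values are reported as a treated-to-control quotient.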

[1] = endpoint: mean survival time, dose: 100.0 mg/kg/injection, schedule: Q01DX001 (ip), vehicle: carboxymethylcellulose (CMC)
[2] = endpoint: mean survival time, dose: 200.0 mg/kg/injection, schedule: Q01DX001 (ip), vehicle: carboxymethylcellulose (CMC)
[3] = endpoint: mean survival time, dose: 50.0 mg/kg/injection, schedule: Q01DX009 (ip), vehicle: saline with Tween-80
[4] = endpoint: mean survival time, dose: 100.0 mg/kg/injection, schedule: Q01DX009 (ip), vehicle: saline with Tween-80

Measured: T/C

CN1CCN(Cc2c(O)ccc3c4c(c(=O)oc23)CCCC4)CC1
inactive: [1] 98 % of control | [2] 93 % of control

CCN(C(=O)Nc1ccccc1F)c1cc(OC)ccc1C
inactive: [3] 91 % of control | [4] 86 % of control

CC(=O)N1Cc2ncnc(N)c2C1
inactive: [1] 101 % of control | [2] 95 % of control | endpoint: mean survival time, dose: 400.0 mg/kg/injection, schedule: Q01DX001 (ip), vehicle: carboxymethylcellulose (CMC) 101 % of control

CN(C)C1C(=O)C(C(N)=O)=C(O)C2(O)C(=O)C3=C(O)c4c(O)cccc4C(C)(O)C3CC12 (stereo not drawn)
inactive: endpoint: mean survival time, dose: 100.0 mg/kg/injection, schedule: Q01DX001 (ip), vehicle: saline 94 % of control | endpoint: mean survival time, dose: 200.0 mg/kg/injection, schedule: Q01DX001 (ip), vehicle: saline 96 % of control | endpoint: mean survival time, dose: 400.0 mg/kg/injection, schedule: Q01DX001 (ip), vehicle: saline 100 % of control | endpoint: median survival time, dose: 20.0 mg/kg/injection, schedule: Q04DX003 (ip), vehicle: water 103 % of control and 105 % of control | endpoint: median survival time, dose: 40.0 mg/kg/injection, schedule: Q04DX003 (ip), vehicle: water 97 % of control and 100 % of control | endpoint: median survival time, dose: 80.0 mg/kg/injection, schedule: Q04DX003 (ip), vehicle: water 97 % of control and 100 % of control | endpoint: median survival time, dose: 160.0 mg/kg/injection, schedule: Q04DX003 (ip), vehicle: water 105 % of control and 111 % of control

CC(C(=O)Nc1ccc(Cl)c(Cl)c1)C(=O)Nc1ccc(Cl)c(Cl)c1
inactive: endpoint: mean survival time, dose: 100.0 mg/kg/injection, schedule: Q04DX002 (ip), vehicle: gum acacia 92 % of control | endpoint: mean survival time, dose: 200.0 mg/kg/injection, schedule: Q04DX002 (ip), vehicle: gum acacia 103 % of control | endpoint: mean survival time, dose: 400.0 mg/kg/injection, schedule: Q04DX002 (ip), vehicle: gum acacia 99 % of control

COC(=O)c1ccccc1-c1ccccc1C(=O)O
inactive: endpoint: mean survival time, dose: 44.0 mg/kg/injection, schedule: Q01DX001 (ip), vehicle: other 101 % of control | endpoint: mean survival time, dose: 66.0 mg/kg/injection, schedule: Q01DX001 (ip), vehicle: other 106 % of control | endpoint: mean survival time, dose: 100.0 mg/kg/injection, schedule: Q01DX001 (ip), vehicle: other 93 % of control | endpoint: mean survival time, dose: 150.0 mg/kg/injection, schedule: Q01DX001 (ip), vehicle: other 95 % of control | endpoint: mean survival time, dose: 200.0 mg/kg/injection, schedule: Q01DX001 (ip), vehicle: other 98 % of control | endpoint: mean survival time, dose: 400.0 mg/kg/injection, schedule: Q01DX001 (ip), vehicle: other 98 % of control

CSc1ccc(NC(=O)NCCCCCCNC(=O)Nc2ccc(SC)cc2)cc1
inactive: [3] 93 % of control | [4] 96 % of control | endpoint: mean survival time, dose: 200.0 mg/kg/injection, schedule: Q01DX009 (ip), vehicle: saline with Tween-80 90 % of control

Cc1ccc2nc3c(nc2c1)-c1cccc2cccc-3c12
inactive: endpoint: mean survival time, dose: 25.0 mg/kg/injection, schedule: Q01DX009 (ip), vehicle: saline with Tween-80 94 % of control | [3] 90 % of control | endpoint: mean survival time, dose: 100.0 mg/kg/injection, schedule: Q04DX003 (ip), vehicle: saline with Tween-80 102 % of control | endpoint: mean survival time, dose: 200.0 mg/kg/injection, schedule: Q04DX003 (ip), vehicle: saline with Tween-80 93 % of control

ClCC1=Nc2c(Cl)ncnc2NN1
inactive: endpoint: mean survival time, dose: 6.25 mg/kg/injection, schedule: Q04DX003 (ip), vehicle: saline with Tween-80 94 % of control | endpoint: mean survival time, dose: 12.5 mg/kg/injection, schedule: Q04DX003 (ip), vehicle: saline with Tween-80 96 % of control | endpoint: mean survival time, dose: 25.0 mg/kg/injection, schedule: Q01DX001 (ip), vehicle: saline with Tween-80 95 % of control | endpoint: mean survival time, dose: 25.0 mg/kg/injection, schedule: Q04DX003 (ip), vehicle: saline with Tween-80 91 % of control

COc1nc(=S)n2[nH]cnc2n1
inactive: endpoint: mean survival time, dose: 12.5 mg/kg/injection, schedule: Q01DX009 (ip), vehicle: saline 89 % of control | endpoint: mean survival time, dose: 25.0 mg/kg/injection, schedule: Q01DX009 (ip), vehicle: saline 94 % of control | endpoint: mean survival time, dose: 50.0 mg/kg/injection, schedule: Q01DX009 (ip), vehicle: saline 109 % of control | endpoint: mean survival time, dose: 50.0 mg/kg/injection, schedule: Q04DX003 (ip), vehicle: saline 102 % of control | endpoint: mean survival time, dose: 100.0 mg/kg/injection, schedule: Q04DX003 (ip), vehicle: saline 91 % of control | endpoint: mean survival time, dose: 200.0 mg/kg/injection, schedule: Q04DX003 (ip), vehicle: saline 92 % of control

C1CCC(CCC(CCC2CCCCC2)CCC2CCCCC2)CC1
inactive: endpoint: mean survival time, dose: 100.0 mg/kg/injection, schedule: Q01DX001 (ip), vehicle: Klucel (hydroxypropylcellulose) (HPC) 89 % of control | endpoint: mean survival time, dose: 200.0 mg/kg/injection, schedule: Q01DX001 (ip), vehicle: Klucel (hydroxypropylcellulose) (HPC) 91 % of control | endpoint: mean survival time, dose: 400.0 mg/kg/injection, schedule: Q01DX001 (ip), vehicle: Klucel (hydroxypropylcellulose) (HPC) 91 % of control
